Here are results for nine molecules from US20220313753A1, “BIFIDOBACTERIUM BIFIDUM BACTERIAL STRAIN, THE COMPOSITIONS THEREOF AND RELATED USES” (priority 2019, published 2022).

Like-named read-outs stand apart in the source and are kept apart here.

Assay [1] relates to B. bifidum MIMBb23sg DSM 32708. Nature of the assay: Antibiotic MIC by microdilution analysis (ISO, 2010). In kind it is cell-based, Bifidobacterium bifidum. Particulars: for MIC: Bifidobacterium bifidum.
Assay [2] has as its system bifidobacteria. Particulars: limit values provided for bifidobacteria (EFSA, 2012); cited from earlier work.
The mark [3] stands for this setting: DSM32708, microdilution analysis, ISO 2010, read-out: MIC of MIMBb23sg.

With `CC1(C)S[C@@H]2[C@H](NC(=O)[C@H](N)c3ccccc3)C(=O)N2[C@H]1C(=O)O` [ampicillin], the MIC (as a rule, the least concentration at which growth counts as inhibited) in assay [1] (setting [3]) stood at 0.25 µg/mL. Besides, in assay [2], the EFSA limit values is 2 µg/mL. For `O=C(N[C@H](CO)[C@H](O)c1ccc([N+](=O)[O-])cc1)C(Cl)Cl` [chloramphenicol], the MIC in assay [1] (setting [3]) was determined as 2 µg/mL. Further, the EFSA limit values in assay [2] was 4 µg/mL.

For the molecule `CCC[C@@H]1C[C@@H](C(=O)N[C@@H]([C@H]2O[C@H](SC)[C@H](O)[C@@H](O)[C@H]2O)[C@H](C)Cl)N(C)C1` [clindamycin], the minimum inhibitory concentration (MIC) in assay [1] (setting [3]) is 0.25 µg/mL. As to `CC[C@H]1OC(=O)[C@H](C)[C@@H](O[C@H]2C[C@@](C)(OC)[C@@H](O)[C@H](C)O2)[C@H](C)[C@@H](O[C@@H]2O[C@H](C)C[C@H](N(C)C)[C@H]2O)[C@](C)(O)C[C@@H](C)C(=O)[C@H](C)[C@@H](O)[C@]1(C)O` [erythromycin], in assay [1] (setting [3]), the MIC was 0.25 µg/mL. For the same molecule, in assay [2], the EFSA limit values was 1 µg/mL. Consider `NC[C@H]1O[C@H](O[C@H]2[C@H](O)[C@@H](O[C@H]3O[C@H](CO)[C@@H](O)[C@H](N)[C@H]3O)[C@H](N)C[C@@H]2N)[C@H](O)[C@@H](O)[C@@H]1O` [kanamycin], for which the minimal inhibitory concentration (MIC) in assay [1] (setting [3]) worked out at 128 µg/mL. For the molecule `[H]/N=C(/N)N[C@H]1[C@H](O)[C@@H](O)[C@H](O[C@@H]2O[C@@H](C)[C@](O)(C=O)[C@H]2O[C@@H]2O[C@@H](CO)[C@H](O)[C@@H](O)[C@@H]2NC)[C@@H](N/C(N)=N\[H])[C@@H]1O` [streptomycin], in assay [1] (setting [3]), the MIC was 128 µg/mL. In assay [2], the EFSA limit values was 128 µg/mL. With `CN(C)[C@@H]1C(O)=C(C(N)=O)C(=O)[C@@]2(O)C(O)=C3C(=O)c4c(O)cccc4[C@@](C)(O)[C@H]3C[C@@H]12` [tetracycline], in assay [1] (setting [3]), the minimal inhibitory concentration (MIC) amounted to 1 µg/mL. With `CN[C@H](CC(C)C)C(=O)N[C@H]1C(=O)N[C@@H](CC(N)=O)C(=O)N[C@H]2C(=O)N[C@H]3C(=O)N[C@H](C(=O)N[C@H](C(=O)O)c4cc(O)cc(O)c4-c4cc3ccc4O)[C@H](O)c3ccc(c(Cl)c3)Oc3cc2cc(c3O[C@@H]2O[C@H](CO)[C@@H](O)[C@H](O)[C@H]2O[C@H]2C[C@](C)(N)[C@H](O)[C@H](C)O2)Oc2ccc(cc2Cl)[C@H]1O` [vancomycin], in assay [1] (DSM32708, read-out: MIC of MIMBb23sg), the MIC is 0.5 µg/mL. The EFSA limit values in assay [2] was 2 µg/mL. Regarding gentamicin, the “MIC of MIMBb23sg” value in assay [1] (microdilution analysis, ISO 2010) is 32 µg/mL. In assay [2], the EFSA limit values is 64 µg/mL.
